Measured values published in ChEMBL document CHEMBL1777806, “Three new cytotoxic aryltetralin lignans from Sinopodophyllum emodi” (Bioorg Med Chem Lett, 2011).
pIC50: −log10 of the molar value.

How the values were obtained:
[1] = test system: HeLa; experiment: Cytotoxicity against human HeLa cells after 72 hrs by MTT assay; type: functional, cell-based
[2] = test system: KB; experiment: Cytotoxicity against human KB cells after 72 hrs by MTT assay; type: functional, cell-based

Structure (SMILES): COc1cc([C@@H]2c3cc4c(cc3[C@H](O)[C@H]3COC(=O)[C@H]23)OCO4)cc(OC)c1OC(C)=O
- pIC50 [1]: 7.12
- pIC50 [2]: 7.30

Structure (SMILES): COc1cc([C@@H]2c3cc4c(cc3[C@@H](O[C@@H]3O[C@H](CO)[C@@H](O)[C@H](O)[C@H]3O)[C@H]3COC(=O)[C@H]23)OCO4)cc(OC)c1O
- pIC50 [1]: 7.32
- pIC50 [2]: > 8.00

Structure (SMILES): COc1cc([C@@H]2c3cc4c(cc3[C@H](O[C@@H]3O[C@H](CO)[C@@H](O)[C@H](O)[C@H]3O)[C@H]3COC(=O)[C@H]23)OCO4)cc(OC)c1O
- pIC50 [1]: 5.27
- pIC50 [2]: 5.02

Structure (SMILES): COc1cc([C@@H]2c3cc4c(cc3C[C@H]3COC(=O)[C@@H]32)OCO4)cc(OC)c1O[C@@H]1O[C@H](CO)[C@@H](O)[C@H](O)[C@H]1O
- pIC50 [1]: 6.06
- pIC50 [2]: 5.68

Structure (SMILES): COc1cc([C@@H]2c3cc4c(cc3[C@H](O[C@@H]3O[C@H](CO[C@@H]5O[C@H](CO)[C@@H](O)[C@H](O)[C@H]5O)[C@@H](O)[C@H](O)[C@H]3O)[C@H]3COC(=O)[C@@H]23)OCO4)cc(OC)c1OC
- pIC50 [1]: < 4.00
- pIC50 [2]: < 4.00

Structure (SMILES): COc1cc([C@@H]2c3cc4c(cc3[C@H](O)[C@H]3COC(=O)[C@H]23)OCO4)cc(OC)c1O
- pIC50 [1]: 7.10
- pIC50 [2]: 7.19

Structure (SMILES): COc1cc([C@@H]2c3cc4c(cc3[C@H](O[C@@H]3O[C@H](CO)[C@@H](O)[C@H](O)[C@H]3O)[C@H]3COC(=O)[C@H]23)OCO4)cc(OC)c1OC
- pIC50 [1]: 5.18
- pIC50 [2]: 5.03

Structure (SMILES): COc1cc(-c2c3c(c(O)c4cc5c(cc24)OCO5)COC3=O)cc(OC)c1O
- pIC50 [1]: < 4.00
- pIC50 [2]: 4.07

Structure (SMILES): COc1cc([C@@H]2c3cc(O)c(O)cc3[C@H](O)[C@H]3COC(=O)[C@H]23)cc(OC)c1O
- pIC50 [1]: 4.10
- pIC50 [2]: < 4.00

Structure (SMILES): COc1cc([C@@H]2c3cc4c(cc3C[C@H]3COC(=O)[C@@H]32)OCO4)cc(OC)c1O [4'-DEMETHYLDEOXYPODOPHYLLOTOXIN]
- pIC50 [1]: 7.13
- pIC50 [2]: 8.11

Structure (SMILES): COc1cc([C@@H]2c3cc(O)c(O)cc3[C@H](O)[C@H]3COC(=O)[C@H]23)cc(OC)c1OC [6,7-O,O-DEMETHYLENEPODOPHYLLOTOXIN]
- pIC50 [1]: < 4.00
- pIC50 [2]: < 4.00

Structure (SMILES): COc1cc(-c2c3c(c(O)c4cc5c(cc24)OCO5)COC3=O)cc(OC)c1OC [DEHYDROPODOPHYLLOTOXIN]
- pIC50 [1]: 5.08
- pIC50 [2]: 5.01

Structure (SMILES): COc1cc([C@@H]2c3cc4c(cc3C[C@H]3COC(=O)[C@@H]32)OCO4)cc(OC)c1OC [DESOXYPODOPHYLLOTOXIN]
- pIC50 [1]: 8.16
- pIC50 [2]: 8.05

Structure (SMILES): COc1cc([C@@H]2c3cc4c(cc3[C@@H](O[C@@H]3O[C@@H]5CO[C@@H](C)O[C@H]5[C@H](O)[C@H]3O)[C@H]3COC(=O)[C@H]23)OCO4)cc(OC)c1O [ETOPOSIDE]
- pIC50 [1]: 5.40
- pIC50 [2]: 5.00

Structure (SMILES): COc1cc([C@@H]2c3cc4c(cc3C(=O)[C@@H]3COC(=O)[C@H]23)OCO4)cc(OC)c1OC [ISOPICROPODOPHYLLONE]
- pIC50 [1]: 4.49
- pIC50 [2]: < 4.00

Structure (SMILES): COc1cc([C@@H]2c3cc4c(cc3[C@H](O)[C@H]3COC(=O)[C@H]23)OCO4)cc(OC)c1OC [PODOFILOX]
- pIC50 [1]: 7.16
- pIC50 [2]: 7.25

Structure (SMILES): COc1cc([C@@H]2c3cc4c(cc3[C@H](O[C@@H]3O[C@H](COC(C)=O)[C@@H](O)[C@H](O)[C@H]3O)[C@H]3COC(=O)[C@H]23)OCO4)cc(OC)c1OC [SINOLIGNAN A]
- pIC50 [1]: 5.42
- pIC50 [2]: 5.06

Structure (SMILES): COc1cc([C@@H]2c3cc4c(cc3[C@H](O[C@@H]3O[C@H](CO[C@@H]5O[C@H](CO)[C@@H](O)[C@H](O)[C@H]5O)[C@@H](O)[C@H](O)[C@H]3O)[C@H]3COC(=O)[C@@H]23)OCO4)cc(OC)c1O [SINOLIGNAN B]
- pIC50 [1]: < 4.00
- pIC50 [2]: < 4.00
